Experiment [1] has as its system HT-1080. Briefly: HT1080 cell viability loss – fluorescence readout (AID 620). Format: functional, cell-based. The settings on record: Homo sapiens.
Experiment [2] concerns the target Luciferin 4-monooxygenase (Photinus pyralis, UniProt P08659). The experiment can be described thus: Counter Screen for Luciferase-based Assay Positives. [Related pubchem assays: 620, 618, 411 ]. (Counterscreens check selectivity or assay interference.)
Experiment [3] relates to BJ. The experiment can be described thus: BJ-TERT-LT-ST fibroblast viability loss – cell-based, RAS-independent, luminescence, dose response (AID 1935).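 Note: BJ fibroblasts immortalized with TERT plus LT and ST oncogenes.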 Format: functional. The settings on record: Homo sapiens.
A short description of experiment [4]: DRD fibroblast viability loss – cell-based, non-viral oncogenic, luminescence, dose response (AID 1934). It is filed as functional. As to conditions: Homo sapiens.
The nature of experiment [5]: HEK-293T viability loss after treatment – luminescence, T-cell screen hits, cytotoxicity control for TCR NF-kB inhibitor project, dose response (AID 489026).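 Note: cells exposed to compound about 14 hours before the viability readout.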 Format: functional, cell-based.
Experiment [6] concerns BJ. The experiment can be described thus: BJ-TERT fibroblast viability loss – cell-based, RAS-independent, luminescence, dose response (AID 1933). It is filed as functional. The settings on record: Homo sapiens.
The test system of experiment [7] is BJ. The experiment can be described thus: growth inhibition of engineered Ras-driven BJ cells – cell-based, alamar blue fluorescence, cherrypicked samples, dose response (AID 2631).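 Note: confirmatory dose-response assay in RAS-dependent BJ fibroblasts engineered with TERT, LT and ST, with cytotoxicity read by fluorescence.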 The settings on record: Homo sapiens. It is filed as functional. (In general: Alamar Blue is a resazurin reagent that responds to reducing activity.)
Experiment [8] is described as follows: Luminescence Cell-Based Dose Confirmation HTS to Identify Activators of 5'UTR Stem-Loop Driven Alpha-Synuclein mRNA Translation in H4 Neuroglioblastoma Cells. [Related pubchem assays: 1829 (Project Summary), 1814 (Primary HTS)]. It is filed as functional.
For experiment [9], the system named is H4. The experiment can be described thus: Luminescence Cell-Based Dose Response HTS to Identify Activators of 5'UTR Stem-Loop Driven Prion Protein mRNA Translation in H4 Neuroglioblastoma Cells. [Related pubchem assays: 1829 (Project Summary), 1814 (Primary HTS)]. It is filed as functional. The settings on record: Homo sapiens.
Experiment [10] has as its system BJ. Briefly: cells. It is filed as functional, cell-based. As to conditions: Homo sapiens.
Experiment [11] is described as follows: Luminescence Cell-Based Dose Response HTS to Identify Activators of Luciferase Translation or Activity in H4 […] Cells. [Related pubchem assays: 1829 (Project Summary), 1814 (Primary HTS)]. It is filed as functional.
Experiment [12] addresses Heat shock protein HSP 90-alpha (Homo sapiens, UniProt P07900). Format: functional, organism-based.
Experiment [13] concerns INS1. The experiment can be described thus: INS-1E survival protection against cytokine death – cell-based, luminescence, retest, dose response (AID 449756).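 Note: cell death triggered by IL-1 beta plus TNF-alpha plus IFN-gamma mixture; protective hits raise ATP signal compared with cytokine alone wells.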 It is filed as functional. As to conditions: Rattus norvegicus.
The test system of experiment [14] is HeLa. Briefly: Cytotoxicity counterscreen assay for transcriptional activators of heat shock protein 70 (Hsp70). [Related pubchem assays: 1203, 1252 ]. The settings on record: Homo sapiens. It is filed as functional.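 Note: cells exposed to compound for 16 hours before readout.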

Calls of active or inactive are those of the source. Cut-off read from the data, not from the text of the source, for most assays here: actives have a measured EC50 and inactives only a lower limit.

Luciferin 4-monooxygenase, sequence (P08659 whole entry): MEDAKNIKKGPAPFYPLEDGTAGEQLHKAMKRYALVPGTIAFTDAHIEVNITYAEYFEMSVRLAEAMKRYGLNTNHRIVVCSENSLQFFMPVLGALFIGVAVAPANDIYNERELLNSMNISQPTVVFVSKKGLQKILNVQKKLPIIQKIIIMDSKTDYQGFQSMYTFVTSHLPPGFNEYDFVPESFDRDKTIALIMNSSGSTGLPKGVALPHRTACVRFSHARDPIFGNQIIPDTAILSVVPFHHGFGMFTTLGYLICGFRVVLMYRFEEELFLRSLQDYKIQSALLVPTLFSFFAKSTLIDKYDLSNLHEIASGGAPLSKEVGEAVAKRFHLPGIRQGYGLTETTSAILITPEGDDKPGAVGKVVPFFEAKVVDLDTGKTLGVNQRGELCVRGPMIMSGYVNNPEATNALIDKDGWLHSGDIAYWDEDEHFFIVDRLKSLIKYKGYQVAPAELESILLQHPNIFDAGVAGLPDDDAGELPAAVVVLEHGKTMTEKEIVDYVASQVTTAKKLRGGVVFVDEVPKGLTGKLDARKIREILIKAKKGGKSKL

In general, EC50 refers to the concentration giving half of the maximal effect. On to `c1ccc(-c2ccc(-c3nc(-c4ccncc4)no3)cc2)cc1`, for which the results for the EC50 in [1] and in experiment [2] were > 50 µM (not active) and 4.37 µM (active), respectively.
Usually IC50 stands for the concentration needed to halve the response being measured. Broadly, the AC50 is the concentration giving half of the maximal activity seen. As usually defined, the CC50 is the concentration at which the toxic effect on the cells reaches its halfway point. A high value points to lower toxicity to the cells. Turning to `CC1C/C(=C/c2ccncc2)C(=O)/C(=C/c2ccncc2)C1` (centres undefined), the EC50 in [3] is 2.3 µM (inconclusive); in experiment [4], 2.23 µM (inconclusive); in experiment [6], 1.1 µM (inconclusive); in [7], 0.291 µM (active); in experiment [8] it was > 120 µM (not active); in experiment [9], > 120 µM (not active). Besides, the results for the EC50 in experiment [10] and in experiment [11] were 1.01 µM (inconclusive) and > 60 µM (not active), respectively. The IC50 in experiment [5] is 54 µM (inactive). The AC50 in experiment [12] is 4.23 µM (active); in experiment [13], 3.66 µM (active). Also, in experiment [14], the CC50 is > 1.22 µM (not active).
